Laboratory results taken from patent publication US12370214B2, “Combined pharmaceutical formulation comprising drug-containing liposome composition and platinum preparation” (FUJIFILM Corporation, priority 2018, dated 2025).

Assays:
A2780 cells [1] = experiment: Drug efficacy test with combined use of platinum preparation in tumor-bearing mouse model with subcutaneous transplantation of A2780 (carboplatin, Lipo, topotecan); assay type: in vivo, mice; conditions: for Median survival time: from start of drug administration, carboplatin 80 mg/kg ip, Lipo 0.5 mg/kg tail vein once a week x 2, topotecan 0.5 mg/kg tail vein once a day x 5, carboplatin once in the topotecan combination; for Number of animal deaths or euthanasias due to deterioration of condition: of 8 animals in group, same doses and schedules as median survival
Source text: A platinum preparation (hereinafter, also referred to as carboplatin), the topotecan-containing liposome composition according to the embodiment of the present invention, and topotecan were used as test substances. Physiological saline (available from Otsuka Pharmaceutical Factory, Inc., hereinafter, also referred to as carboplatin solvent) was used for the dilution of carboplatin and topotecan. A 5% Otsuka glucose solution (available from Otsuka Pharmaceutical Factory, Inc., hereinafter, also referred to as Lipo solvent) was used for the dilution of Lipo.
(§1) 5×10^6 A2780 cells, which is a human ovarian cancer cell line, were subcutaneously transplanted into the flank of female BALB/cAJcl-nu/nu mice to form subcutaneous tumors. From 7 days after transplantation, mice were drug treated with carboplatin alone, Lipo of the present invention alone, topotecan alone, a combination of carboplatin and Lipo, and a combination of carboplatin and topotecan, and the effect of the drug treatment on the survival time of the mice was evaluated. In a case where a volume of tumor reached 2,000 mm^3 or in a case where significant deterioration of the condition was observed, the animals were euthanized and considered dead.
In the combination group of a carboplatin solvent and a Lipo solvent, the carboplatin solvent was administered by intraperitoneal administration, and the Lipo solvent was administered by tail vein administration once a week for 2 weeks. The carboplatin alone group was administered by intraperitoneal administration once a week for 2 weeks. The Lipo alone group was administered by tail vein administration once a week for 2 weeks. In the combination group of carboplatin and Lipo, carboplatin was administered by intraperitoneal administration once a week for 2 weeks, and Lipo was administered by tail vein administration once a week for 2 weeks. In the combination group of carboplatin and topotecan, carboplatin was administered as a single dose by intraperitoneal administration, and topotecan was administered by tail vein administration once a day for 5 days.
Groups 1 to 4 and 6 correspond to Comparative Examples, and Group 5 corresponds to Example. In Table 5, “Lipo” represents the topotecan-containing liposome composition according to the embodiment of the present invention, “Abdomen” represents intraperitoneal administration, “Tail” represents tail vein administration, “Once a week×2” represents once a week for 2 weeks, “Once a day×5” represents administration once a day for 5 days, and “Once” represents administration once during the test period.

A2780 cells [2] = experiment: Drug efficacy test with combined use of platinum preparation in tumor-bearing mouse model with subcutaneous transplantation of A2780 (carboplatin, Lipo, paclitaxel); assay type: in vivo, mice
Experimental: A platinum preparation (hereinafter, also referred to as carboplatin), the topotecan-containing liposome composition according to the embodiment of the present invention, and paclitaxel were used as test substances. Physiological saline (available from Otsuka Pharmaceutical Factory, Inc., hereinafter, also referred to as carboplatin solvent) was used for the dilution of carboplatin. A 10 mM histidine/9.4% sucrose solution (hereinafter, also referred to as Lipo solvent) was used for the dilution of Lipo. 12.5% CREMOPHOR (available from Sigma-Aldrich, LLC)/12.5% ethanol (available from Shonan Wako Junyaku K.K.)/75% physiological saline (available from Otsuka Pharmaceutical Factory, Inc.) was used for the dilution of paclitaxel.
as §1, with “alone,” for “alone, topotecan alone,”, “paclitaxel,” for “topotecan,”, “dead. […]” for “dead.”

Row | Structure (SMILES) | Median survival time (A2780 cells [1]) | Number of animal deaths or euthanasias due to deterioration of condition (A2780 cells [1]) | Median survival time (A2780 cells [2]; from start of drug administration, carboplatin 80 mg/kg ip, Lipo 0.5 mg/kg tail vein, paclitaxel 20 mg/kg tail vein, single agents once a week x 2, combinations once) | Number of animal deaths or euthanasias due to deterioration of condition (A2780 cells [2]; of 8 animals in group, same doses and schedules as median survival)
1 | N.N.O=C([O-])C1(C(=O)[O-])CCC1.[Pt+2] [Carboplatin, carboplatin] | 9.1 days | 0 | 10 days | 1
2 | CC[C@@]1(O)C(=O)OCc2c1cc1n(c2=O)Cc2cc3c(CN(C)C)c(O)ccc3nc2-1 [Topotecan, topotecan] | 12.9 days | 0 | – | –
